Experimental data: patent publication US10160785B2, “Antimicrobial peptides and their use for the treatment of topical infections” (priority 2015, dated 2018)

What was measured:
[1] = in vitro; details: human
How it was run: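 Hemolysis expressed as LC50, the concentration giving 50% erythrocyte lysis. Supernatant A540 was scaled between buffer-only blank and 0.2% Triton X100 total lysis after 1 h, 37 °C exposure of 5% v/v human red cells to 2-200 μmol.l^−1 peptide in physiological solution.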

[2] = system: Candida albicans (Olomouc); assay: microbe, parasite or virus in culture; assay type: cell-based; details: RPMI broth microdilution, 35° C., 48 hours, visual
Description: (§1) All yeasts Candida albicans (Olomouc) and ATCC MYA-2876, Candida glabrata ATCC 2001 and DSY 565, Candida dubliniensis ATCC MYA-646, Candida krusei ATCC 6258 and Candida tropicalis ATCC 750 were sub-cultured from sterile vials onto Sabouraud dextrose agar, which was composed of 40 g dextrose (Penta, Czech Republic), 10 g peptone (OXOID, Great Britain) and 17 g agar (OXOID), dissolved in 1 l of distilled water, and cultivated for 24 hours at 35° C.
(§2) All strains were stored in a way that minimizes the possibility of mutation. Candida spp. were grown overnight in liquid YPD medium which is composed of 10 g yeast extract (DIFCO, USA), 20 g peptone (OXOID), and 20 g dextrose (Penta) dissolved in 1 l distilled water. Then the overnight culture was cryogenically preserved by suspending in 50% glycerol solution (1:1) in small vials and stored at −80° C.
(§3) The inoculum was prepared by picking five colonies from 24-hour-old cultures of Candida spp. The colonies were suspended in 1 ml of sterile saline solution and vortexed for 15 seconds. Optical density of the suspension was adjusted spectrophotometrically by adding sterile saline solution to produce optical density of 0.18 at 600 nm. A working suspension was made by a 1:50 dilution followed by a 1:20 dilution of the stock suspension with RPMI 1640 broth medium which was composed of L-glutamine without NaHCO3 (BioSera, France), and with 0.165 mol.l^−1 MOPS (Duchefa, Netherland)—further as RPMI broth medium.
(§4) The broth microdilution test was performed by using sterile, disposable, multi-well microdilution plates (96-well). The peptides in the concentrations 0.625-160 μmol.l^−1 were pipetted into the wells in 100 μl volumes. Each well of the plate was inoculated with 100 μl of the diluted inoculum suspension. Final yeast density in each well was 5×10^2 up to 2.5×10^3 CFU/ml. The microdilution plates were incubated without shaking at 35° C. and observed for the presence or absence of visible growth for 48 hours.
(§5) Drug-free medium without inoculation served as negative control; the growth positive control contained inoculated drug-free medium. Amphotericin B was used as control drug to ensure quality of Candida strains.
(§6) The minimal inhibition concentrations (MICs) were visually determined 48 hours after inoculation. The MIC values were defined as the lowest concentration in which no observable growth is noticeable.
(§7) All yeast isolates were obtained from the Institute of Physiology of the Academy of Sciences of the Czech Republic. Candida albicans (Olomouc) came from the Faculty of Medicine and Dentistry, Palacý University Olomouc.

[3] = system: Candida krusei ATCC 6258; assay: microbe, parasite or virus in culture; assay type: cell-based; details: RPMI broth microdilution, 35° C., 48 hours, visual
Description: as §1, §2, §3, §4, §5, §6, §7

[4] = system: Candida albicans ATCC MYA-2876; assay: microbe, parasite or virus in culture; assay type: cell-based; details: RPMI broth microdilution, 35° C., 48 hours, visual
Description: as §1, §2, §3, §4, §5, §6, §7

[5] = system: Candida dubliniensis ATCC MYA-646; assay: microbe, parasite or virus in culture; assay type: cell-based; details: RPMI broth microdilution, 35° C., 48 hours, visual
Description: as §1, §2, §3, §4, §5, §6, §7

[6] = system: Candida glabrata DSY 565; assay: microbe, parasite or virus in culture; assay type: cell-based; details: RPMI broth microdilution, 35° C., 48 hours, visual
Description: as §1, §2, §3, §4, §5, §6, §7

[7] = system: Candida tropicalis ATCC 750; assay: microbe, parasite or virus in culture; assay type: cell-based; details: RPMI broth microdilution, 35° C., 48 hours, visual
Description: as §1, §2, §3, §4, §5, §6, §7

[8] = system: Candida glabrata ATCC 2001; assay: microbe, parasite or virus in culture; assay type: cell-based; details: RPMI broth microdilution, 35° C., 48 hours, visual
Description: as §1, §2, §3, §4, §5, §6, §7

[9] = system: Staphylococcus epidermidis Motol; details: 37° C., 20 h
Description: (§8) Gram-positive bacteria (Micrococcus luteus, Bacillus subtilis, Staphylococcus aureus, Staphylococcus epidermidis and Enterococcus faecalis), Gram-negative bacteria (Escherichia coli and Pseudomonas aeruginosa) and the yeast (Candida albicans) were grown to exponential phase and then were diluted with fresh medium. BHI medium (Oxoid, Great Britain) was used for Enterococcus faecalis; YPD medium containing yeast extract peptone and glucose was used for Candida albicans and LB medium (Sigma, Czech Republic) was used for the remaining microorganisms. Then the microorganisms were added to the solutions of the tested antimicrobial peptides in LB medium in multi-well plates. The final peptide concentration it the wells was in the range of 0.1 to 100 μmol.l^−1. That was made by twofold serial dilution from the peptide stock solution (1 mmol.l^−1). The plates were incubated at 37° C. for 20 h while being continuously shaken in a Bioscreen C (Oy Growth Curves AB Ltd., Helsinki, Finland). Absorbance was measured at 540 nm every 15 min. Antimicrobial activity (Table 2) was determined as a quantitative minimum inhibitory concentration (MIC) by observing bacterial growth in the presence of different concentrations of tested peptides. In the experiments ca 10^5 CFU of bacteria or candida per well were routinely used.
(§9) Multiresistant clinical isolates of bacteria were obtained from University Hospital in Motol, Prague, Czech Republic and from Liberec Regional Hospital, Czech Republic. Methicillin resistant Staphylococcus aureus (MRSA) 6271 and Pseudomonas aeruginosa 5482 were from the Czech National Collection of Type Cultures, the National Institute of Public Health, Prague, Czech Republic. Other bacteria were from the Czech Collection of Microorganisms, Brno, Czech Republic. Candida albicans came from the Faculty of Medicine, Palacky University, Olomouc, Czech Republic.

[10] = system: Pseudomonas aeruginosa Liberec; details: Pseudomonas aeruginosa Liberec; 37° C., 20 h
Description: as §8, §9

[11] = system: Methicillin resistant Staphylococcus aureus (MRSA) 6271; details: 37° C., 20 h
Description: as §8, §9

[12] = system: Pseudomonas aeruginosa 5482; details: 37° C., 20 h
Description: as §8, §9

[13] = system: Micrococcus luteus; details: Micrococcus luteus; 37° C., 20 h
Description: as §8, §9

[14] = system: Candida albicans Olomouc; details: Candida albicans Olomouc; YPD medium; 37° C., 20 h (Example 2)
Description: as §8, §9

[15] = system: Bacillus subtilis; details: Bacillus subtilis; 37° C., 20 h
Description: as §8, §9

[16] = system: Staphylococcus aureus Liberec; details: Staphylococcus aureus Liberec clinical isolate; 37° C., 20 h
Description: as §8, §9

[17] = system: Escherichia coli; details: 37° C., 20 h
Description: as §8, §9

[18] = system: Staphylococcus aureus Motol; details: Staphylococcus aureus Motol clinical isolate; 37° C., 20 h
Description: as §8, §9

[19] = system: Enterococcus faecalis Motol; details: BHI medium, 37° C., 20 h
Description: as §8, §9

[20] = system: S. aureus (Liberec); assay: Synergistic effect of peptides with antibiotics, FIC index; assay type: cell-based, Staphylococcus aureus; details: peptide combined with amoxicillin; FIC <0.5 synergism, 0.5-2 additive, >2 antagonism; averages of three experiments
Description: (§10) MICs values of various combinations of two fold serial dilutions of peptides and antibiotics were determined using the same methodology as in the case of antimicrobial activity determination (Example 2). To consider the type of the final effect, FIC indexes (fractional inhibitory concentration) were used and calculated as follows:
(§11) [formula] where MICPC and MICAC are the MICs of the peptide and antibiotic in combination, respectively, and MICP and MICA are the MICs of the peptide and antibiotic tested alone, respectively. FIC<0.5 were considered as synergy, 0.5≤FIC≤2 as addition effect, and FIC>2 as antagonism.

[21] = system: P. aeruginosa (Liberec); assay: as above; assay type: cell-based, Pseudomonas aeruginosa; details: FIC <0.5 synergism, 0.5-2 additive, >2 antagonism, averages of three experiments; for FIC indexes (fractional inhibitory concentration) Combination with RIF against P. aeruginosa: peptide combined with rifampicin; for FIC indexes (fractional inhibitory concentration) Combination with TET against P. aeruginosa: peptide combined with tetracycline
Description: as §10, §11

Row | Substance | HC50 at 1 h [1] | Antifungal activity MIC C. albicans Olomouc [2] | Antifungal activity MIC C. krusei ATCC 6258 [3] | Antifungal activity MIC C. albicans ATCC MYA-2876 [4] | Antifungal activity MIC C. dubliniensis ATCC MYA-646 [5] | Antifungal activity MIC C. glabrata DSY 565 [6] | Antifungal activity MIC C. tropicalis ATCC 750 [7] | Antifungal activity MIC C. glabrata ATCC 2001 [8] | Antimicrobial activity MIC S. e. Motol [9] | Antimicrobial activity MIC P. a. Liberec [10] | Antimicrobial activity MIC S. a. 6271 [11] | Antimicrobial activity MIC P. a. 5482 [12] | Antimicrobial activity MIC M. l. [13] | Antimicrobial activity MIC C. a. Olomouc [14] | Antimicrobial activity MIC B. s. [15] | Antimicrobial activity MIC S. a. Liberec [16] | Antimicrobial activity MIC E. c. [17] | Antimicrobial activity MIC S. a. Motol [18] | Antimicrobial activity MIC E. f. Motol [19] | FIC indexes (fractional inhibitory concentration) Combination with AMX against S. aureus [20] | also measured
1 | H-GILKSLLKKLKKIIAK-NH2 [X] | > 400 µM | 10.5 µmol/L | 5.0 µmol/L | 17.0 µmol/L | 14.0 µmol/L | 71.1 µmol/L | 1.0 µmol/L | 34.0 µmol/L | 2.2 µmol/L | 8.9 µmol/L | 16.5 µmol/L | 5.0 µmol/L | 1.4 µmol/L | 24.0 µmol/L | 1.5 µmol/L | 4.3 µmol/L | 10.0 µmol/L | 10.0 µmol/L | 76.7 µmol/L | 0.542 | FIC indexes (fractional inhibitory concentration) Combination with RIF against P. aeruginosa [21]: 0.333; FIC indexes (fractional inhibitory concentration) Combination with TET against P. aeruginosa [21]: 0.521
2 | H-GILSKLLKKLKKIIAK-NH2 [XI] | > 400 µM | 12.0 µmol/L | 5.0 µmol/L | 20.0 µmol/L | 10.5 µmol/L | 40.0 µmol/L | 1.0 µmol/L | 26.0 µmol/L | 1.8 µmol/L | 8.5 µmol/L | 22.7 µmol/L | 4.5 µmol/L | 1.6 µmol/L | 45.3 µmol/L | 1.4 µmol/L | 5.9 µmol/L | 17.5 µmol/L | 10.0 µmol/L | 72.7 µmol/L | 0.333 | FIC indexes (fractional inhibitory concentration) Combination with RIF against P. aeruginosa [21]: 0.344; FIC indexes (fractional inhibitory concentration) Combination with TET against P. aeruginosa [21]: 0.646
